The NIST ThermoML archive (doi:10.1016/j.jct.2008.10.008)

Columns and labels:
[1] = molar heat capacity at saturation pressure
[2] = Molar enthalpy of transition or fusion; conditions: Crystal
[3] = Crystal; Adiabatic calorimetry

CC(C)(C)c1ccccc1 [(1,1-dimethylethyl)benzene]
molar heat capacity [J/K/mol], [1]
Conditions	Crystal	Liquid
5 K	0.72	–
5.009 K	0.72	–
5.752 K	1.09	–
6.678 K	1.68	–
7.653 K	2.44	–
8.667 K	3.35	–
9.709 K	4.46	–
10 K	4.79	–
10.84 K	5.76	–
12.09 K	7.28	–
13.47 K	9.104	–
14.96 K	11.15	–
16.6 K	13.48	–
18.41 K	16.04	–
20 K	18.27	–
20.41 K	18.84	–
22.63 K	21.93	–
25.1 K	25.19	–
27.86 K	28.67	–
30 K	31.19	–
30.93 K	32.24	–
34.35 K	35.9	–
38.17 K	39.64	–
40 K	41.3	–
42.44 K	43.41	–
47.2 K	47.28	–
50 K	49.43	–
52.43 K	51.23	–
53.45 K	51.95	–
58.21 K	55.36	–
58.43 K	55.52	–
60 K	56.6	–
64.04 K	59.39	–
70 K	63.57	–
70.32 K	63.81	–
77.32 K	68.59	–
80 K	70.45	–
84.98 K	73.93	–
87.08 K	75.43	–
90 K	77.44	–
93.34 K	79.79	–
93.37 K	79.85	–
100 K	84.51	–
101.27 K	85.43	–
102.4 K	86.21	–
110.41 K	91.89	–
111.86 K	92.92	–
120 K	98.68	–
120.01 K	98.72	–
129.8 K	105.69	–
139.62 K	112.79	–
140 K	113.02	–
149.52 K	119.99	–
160 K	127.65	–
160.53 K	128.13	–
162.39 K	129.37	–
172.82 K	137.16	–
173.48 K	137.69	–
180 K	142.42	–
185.83 K	147.07	–
186.21 K	147.43	–
197.14 K	156.12	–
200 K	157.51	–
203.2 K	162.61	–
206.78 K	167.05	–
215.31 K	169.1	208.01
220 K	–	209.58
223.09 K	–	210.65
223.25 K	–	210.68
232.46 K	–	213.79
232.58 K	–	213.79
240 K	–	216.6
240.86 K	–	216.97
253.04 K	–	221.76
260 K	–	224.65
265.37 K	–	226.92
277.79 K	–	232.27
280 K	–	233.26
291.32 K	–	238.42
294.64 K	–	239.95
298.15 K	–	241.59
300 K	–	242.45
305.81 K	–	245.17
311.47 K	–	247.82
320 K	–	251.92
329.17 K	–	256.4
330 K	–	256.8
340 K	–	261.71
347.61 K	–	265.47
360 K	–	271.66
365.98 K	–	274.65
380 K	–	281.68
384.21 K	–	283.78
400 K	–	291.7
402.17 K	–	292.78
419.78 K	–	301.62
420 K	–	301.72
435.18 K	–	309.12
440 K	–	311.52

Conditions	Molar enthalpy of transition or fusion [kcal/mol]	Triple point temperature [K]
[2]	2.0062	–
[3]	–	215.31
